From article PMC9645382 (Drug development research, 2019)

Molecular target: T1, human neutrophil elastase (HNE) (Homo sapiens, UniProt P08246)
T1 sequence (P08246 30-267): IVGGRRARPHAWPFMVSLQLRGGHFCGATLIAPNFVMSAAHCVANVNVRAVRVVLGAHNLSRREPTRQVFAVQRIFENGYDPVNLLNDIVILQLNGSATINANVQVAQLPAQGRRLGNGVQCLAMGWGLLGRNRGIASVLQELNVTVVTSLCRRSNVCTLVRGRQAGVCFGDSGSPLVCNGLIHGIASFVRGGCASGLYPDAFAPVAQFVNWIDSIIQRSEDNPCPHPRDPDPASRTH
Assay: HNE inhibition assay
Format: biochemical

`O=C(C1CC1)n1cc(-c2ccccc2)c(=O)o1` [Compound 3a, 2-(Cyclopropanecarbonyl)-4-phenylisoxazol-5(2H)-one] and `Cc1cccc(-c2cn(C(=O)C3CC3)oc2=O)c1` [Compound 3c, 2-(Cyclopropanecarbonyl)-4-(m-tolyl)isoxazol-5(2H)-one] are within error of each other in IC50: 16 ± 5 nM for the first, 22 ± 5 nM for the second.

`Cc1ccc(-c2cn(C(=O)C3CC3)oc2=O)cc1` [Compound 3b, 2-(Cyclopropanecarbonyl)-4-(p-tolyl)isoxazol-5(2H)-one] and `O=C(C1CC1)n1cc(-c2ccc(Br)cc2)c(=O)o1` [Compound 3e, 4-(4-Bromophenyl)-2-(cyclopropanecarbonyl)isoxazol-5(2H)-one] are within error of each other in IC50: 26 ± 4 nM for the first, 31 ± 3 nM for the second.

`Cc1ccccc1-c1cn(C(=O)C2CC2)oc1=O` [Compound 3d, 2-(Cyclopropanecarbonyl)-4-(o-tolyl)isoxazol-5(2H)-one] and `O=C(C1CC1)n1cc(-c2ccc(Cl)cc2)c(=O)o1` [Compound 3f, 4-(4-Chlorophenyl)-2-(cyclopropanecarbonyl)isoxazol-5(2H)-one] are within error of each other in IC50: 39 ± 11 nM for the first, 42 ± 8 nM for the second.

`COc1ccc(-c2cn(C(=O)C3CC3)oc2=O)cc1` [Compound 3g, 2-(Cyclopropanecarbonyl)-4-(4-methoxyphenyl)isoxazol-5(2H)-one] and `N#Cc1ccc(-c2cn(C(=O)C3CC3)oc2=O)cc1` [Compound 3h, 4-(2-(Cyclopropanecarbonyl)-5-oxo-2,5-dihydroisoxazol-4-yl)benzonitrile] are within error of each other in IC50: 11 ± 3 nM for the first, 18 ± 5 nM for the second.

First: O=C(C1CC1)n1cc(-c2ccc(C(F)(F)F)cc2)c(=O)o1 [Compound 3i, 2-(Cyclopropanecarbonyl)-4-(4-(trifluoromethyl)phenyl)isoxazol-5(2H)-one]
Second: Cc1cccc(C(=O)n2cc(-c3ccc(C(F)(F)F)cc3)c(=O)o2)c1 [Compound 4i, 2-(3-Methylbenzoyl)-4-(4-[trifluoromethyl]phenyl)isoxazol-5(2H)-one]
The IC50 of the first is 2.5-fold lower: 33 ± 1 nM for the first, 81 ± 28 nM for the second. The first is the more potent here.

`Cc1cccc(C(=O)n2cc(-c3ccccc3)c(=O)o2)c1` [Compound 4a, 2-(3-Methylbenzoyl)-4-phenylisoxazol-5(2H)-one] and `Cc1cccc(C(=O)n2cc(-c3cccc(C)c3)c(=O)o2)c1` [Compound 4c, 2-(3-Methylbenzoyl)-4-(m-tolyl)isoxazol-5(2H)-one] are within error of each other in IC50: 46 ± 12 nM for the first, 31 ± 3 nM for the second.

Compared with `Cc1ccc(-c2cn(C(=O)c3cccc(C)c3)oc2=O)cc1` [Compound 4b, 2-(3-Methylbenzoyl)-4-(p-tolyl)isoxazol-5(2H)-one], `Cc1cccc(C(=O)n2cc(-c3ccc(Br)cc3)c(=O)o2)c1` [Compound 4e, 4-(4-Bromophenyl)-2-(3-methylbenzoyl)isoxazol-5(2H)-one] is 2.1-fold higher in IC50: 22 ± 7 nM for the first, 47 ± 7 nM for the second.

`Cc1cccc(C(=O)n2cc(-c3ccccc3C)c(=O)o2)c1` [Compound 4d, 2-(3-Methylbenzoyl)-4-(o-tolyl)isoxazol-5(2H)-one] and `Cc1cccc(C(=O)n2cc(-c3ccc(Cl)cc3)c(=O)o2)c1` [Compound 4f, 4-(4-Chlorophenyl)-2-(3-methylbenzoyl)isoxazol-5(2H)-one] are within error of each other in IC50: 28 ± 3 nM for the first, 25 ± 2 nM for the second.

First: COc1ccc(-c2cn(C(=O)c3cccc(C)c3)oc2=O)cc1 [Compound 4g, 4-(4-Methoxyphenyl)-2-(3-methylbenzoyl)isoxazol-5(2H)-one]
Second: Cc1cccc(C(=O)n2cc(-c3ccc(C#N)cc3)c(=O)o2)c1 [Compound 4h, 4-(2-(3-Methylbenzoyl)-5-oxo-2,5-dihydroisoxazol-4-yl)benzonitrile]
The IC50 of the first is 3.4-fold lower: 23 ± 7 nM for the first, 78 ± 2 nM for the second.
